Key:
P. berghei NK65 = assay: Modified Peter's 4-day suppressive test in P. berghei NK65 infected Swiss albino mice; type: in vivo, Plasmodium berghei; settings: for effect on parasite load / effect on survival: 50 mg/kg s.c. for four consecutive days (artemisinin 5 mg/kg in combination), vs untreated; for median survival time (MST): 6h/6u 50 mg/kg, artemisinin 5 mg/kg, s.c. for four consecutive days, n = 6/group
Description: The antimalarial effect of two active analogues, 6h and 6u (administered at 50 mg/kg of body weight), was determined in mice infected with P. berghei NK65, a strain, which results in high levels of blood-stage parasitemia. […] However, the 6u analogue had better antimalarial efficacy than the 6h analogue (Fig. 6A). As such, we then evaluated the efficacy of 6u (50 mg/kg) in combination with artemisinin (5 mg/kg of body weight) at reduced dosage in the murine malaria model. […] The median survival times of animals treated with Pht 6u alone, as well in combination with ART were 23 and 27.5 days, respectively (P<0.001).
Figure 6 Antimalarial effect of Pht analogs (6h and 6u) alone and in combination with Artemisinin (6u and ART) on parasitemia and survival in mice infected with P. berghei NK65. Mice were injected with 1 × 10^7 P. berghei infected RBCs. After 48 hours mice were treated with control (PBS: untreated), 6h and 6u (alone), and 6u in combination with artemisinin (all injected subcutaneously) for four consecutive days. The % of parasitemia was determined for the groups on days 5, 8 and 15 by randomly selecting 10 different optical fields on blood smears. (A) Administration of 6h and 6u (alone), and 6 u in combination with ART. Data are the mean ± SEM from six animals per treatment group. (B) Survival in the treatment groups (n = 6/group). (C) Photomicrograph of blood smears of untreated versus treatment groups at day 15 post infection (100x magnification). ART, Artemisinin; *P < 0.05. TEXT PRINTED IN THE PICTURE: (B) Phthalimide 6h: MST- 19.5 | (B) Phthalimide 6u: MST- 23 | (B) Artemisinin: MST- 21.5 | (B) Phthalimide 6u+Artemisinin: MST- 27.5
All animal experiments were performed in female Swiss albino mice (4 to 5 weeks old, weighing 25 to 30 g). The animals were housed under standard controlled conditions at 25 °C with a 12-h light-dark cycle and access to sterilized food pellets and water. All experiments were carried out in accordance with the standard procedures approved by the Animal Ethics Committee of the University of Delhi South Campus, under the Control and Supervision of Experiments on Animals (CPCSEA), Ministry of Social Justice and Empowerment, Government of India. […] The antimalarial activity was carried out in accordance with a slightly modified version of the Peter’s 4-day suppressive test[43]. The animals were assigned to each group (n = 6). Subsequently, after 48 hour of postinfection, the parasitemia level reached 1 to 2%, and all the groups of mice were treated by subcutaneous (s.c.) injection with compounds 6h and 6u alone as well in combination with artemisinin solubilized in DMSO. One group was kept as a control and treated with physiological saline. The efficacy of the treatment was monitored by measuring the parasitemia and survival on days 5, 8 and 15 posttreatments by obtaining thin smears of blood withdrawn from the tail vein of infected mice and staining with 10% Giemsa. The level of parasitemia was determined by counting infected and noninfected erythrocytes from 10 to 15 randomly selected optical fields at 100x magnification and expressed as the number of infected erythrocytes per 100 erythrocytes. The survival of mice was recorded and observed for external symptoms, such as change in body weight, ruffled fur, lethargy and paralysis, until 30 or 40 days posttreatment. The reduction in the level of parasitemia was taken as the index for the curative activities of the drugs. The percentage of parasitemia was calculated manually with the Cell Counting Aid software[44] using the formula (total no. of parasitized RBCs)/(total no. of RBCs) × 100.
For in-vivo experiments, statistical differences between two groups were determined by Student’s t test and between multiple groups using one-way analysis of variance (ANOVA), with P values of <0.05, by GraphPad Prism (version 5.01; GraphPad Software, Inc., CA). […]

P. falciparum 3D7 = assay: Fixed-ratio isobologram drug interaction assay with CQ/DHA, 3D7; type: cell-based, Plasmodium falciparum; settings: Pf3D7
Description: (§1) A modified fixed-ratio isobologram method was used to assess interaction between CQ/DHA and Pht analogues. Briefly, a total of 5 solutions containing fixed-ratio mixtures of Pht derivatives with either CQ or DHA were prepared in the following ratios: 1:1, 2:1, 3:2, 2:3, and 1:4. The starting concentrations for ten 2 fold-serial dilutions across the microtiter plate were assigned so that the IC50 of each drug would be in the 5th serial dilution of the plate. Each drug was tested alone and at fixed ratios of its IC50. The assessment of drug interaction was based on the calculation of the fractional inhibitory concentration (FIC) of two drugs in the […]. FIC was calculated for each association by dividing the IC50 of the drug in the combination by the IC50 of the drug alone.

P. falciparum W2 = assay: Fixed-ratio isobologram drug interaction assay with CQ/DHA, W2; type: cell-based, Plasmodium falciparum; settings: PfW2
Description: as §1

Row | SMILES | effect on parasite load (P. berghei NK65) | effect on survival (P. berghei NK65) | median survival time (MST) (P. berghei NK65) [days] | interaction when combined with CQ and DHA (P. falciparum 3D7) | interaction when combined with CQ and DHA (P. falciparum W2)
1 | CC[C@@H](C)[C@H](c1nc2ccccc2n1Cc1cn(-c2ccc(F)cc2)nn1)N1C(=O)c2ccccc2C1=O [Compound 6h] | suppression of the parasite load | improved survival | 19.5 | synergistic activity | synergistic activity
2 | CC(C)C[C@H](c1nc2ccccc2n1Cc1c[nH]nn1)N1C(=O)c2ccccc2C1=O [Compound 6u] | suppression of the parasite load | improved survival | 23 | synergistic activity | synergistic activity

Source: paper PMC5532363, “Synergistic blending of high-valued heterocycles inhibits growth of Plasmodium falciparum in culture and P. berghei infection in mouse model” (Scientific Reports, 2017)
